Assay results as given in ChEMBL document CHEMBL1145498, “A systematic interaction map of validated kinase inhibitors with Ser/Thr kinases” (Proc Natl Acad Sci U S A, 2007).

Legend:
[1] = target: Serine/threonine-protein kinase Nek6 (Homo sapiens) (UniProt Q9HC98)
[2] = target: T1, Dual specificity mitogen-activated protein kinase kinase 6 (Homo sapiens) (UniProt P52564)
T1 sequence (whole entry): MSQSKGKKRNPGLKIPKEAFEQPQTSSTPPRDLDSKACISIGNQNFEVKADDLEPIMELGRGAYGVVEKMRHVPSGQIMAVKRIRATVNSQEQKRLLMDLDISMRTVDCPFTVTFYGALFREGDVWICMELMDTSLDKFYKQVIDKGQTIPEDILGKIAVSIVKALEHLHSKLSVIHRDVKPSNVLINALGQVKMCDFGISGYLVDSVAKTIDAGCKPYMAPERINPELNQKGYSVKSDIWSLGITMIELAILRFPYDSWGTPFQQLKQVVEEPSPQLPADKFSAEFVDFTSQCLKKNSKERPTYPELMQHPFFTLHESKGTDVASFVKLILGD

[3] = target: Glycogen synthase kinase-3 beta (Homo sapiens, UniProt P49841)
Chain of Glycogen synthase kinase-3 beta (P49841 whole entry, looked up): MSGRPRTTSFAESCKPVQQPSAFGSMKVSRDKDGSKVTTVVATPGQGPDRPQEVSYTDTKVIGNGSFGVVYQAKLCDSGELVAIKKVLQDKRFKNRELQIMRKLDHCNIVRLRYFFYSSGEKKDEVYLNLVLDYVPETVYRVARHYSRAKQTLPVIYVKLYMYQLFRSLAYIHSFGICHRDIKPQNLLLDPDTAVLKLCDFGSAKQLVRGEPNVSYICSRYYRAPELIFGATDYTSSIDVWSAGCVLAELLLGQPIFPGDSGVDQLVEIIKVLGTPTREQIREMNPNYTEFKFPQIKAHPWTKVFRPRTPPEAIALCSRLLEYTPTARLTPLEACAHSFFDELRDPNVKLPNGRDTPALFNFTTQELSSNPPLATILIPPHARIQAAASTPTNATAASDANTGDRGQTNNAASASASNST

[4] = target: STE20-like serine/threonine-protein kinase (Homo sapiens) (UniProt Q9H2G2)
Chain of STE20-like serine/threonine-protein kinase (Homo sapiens) (Q9H2G2 whole entry, looked up): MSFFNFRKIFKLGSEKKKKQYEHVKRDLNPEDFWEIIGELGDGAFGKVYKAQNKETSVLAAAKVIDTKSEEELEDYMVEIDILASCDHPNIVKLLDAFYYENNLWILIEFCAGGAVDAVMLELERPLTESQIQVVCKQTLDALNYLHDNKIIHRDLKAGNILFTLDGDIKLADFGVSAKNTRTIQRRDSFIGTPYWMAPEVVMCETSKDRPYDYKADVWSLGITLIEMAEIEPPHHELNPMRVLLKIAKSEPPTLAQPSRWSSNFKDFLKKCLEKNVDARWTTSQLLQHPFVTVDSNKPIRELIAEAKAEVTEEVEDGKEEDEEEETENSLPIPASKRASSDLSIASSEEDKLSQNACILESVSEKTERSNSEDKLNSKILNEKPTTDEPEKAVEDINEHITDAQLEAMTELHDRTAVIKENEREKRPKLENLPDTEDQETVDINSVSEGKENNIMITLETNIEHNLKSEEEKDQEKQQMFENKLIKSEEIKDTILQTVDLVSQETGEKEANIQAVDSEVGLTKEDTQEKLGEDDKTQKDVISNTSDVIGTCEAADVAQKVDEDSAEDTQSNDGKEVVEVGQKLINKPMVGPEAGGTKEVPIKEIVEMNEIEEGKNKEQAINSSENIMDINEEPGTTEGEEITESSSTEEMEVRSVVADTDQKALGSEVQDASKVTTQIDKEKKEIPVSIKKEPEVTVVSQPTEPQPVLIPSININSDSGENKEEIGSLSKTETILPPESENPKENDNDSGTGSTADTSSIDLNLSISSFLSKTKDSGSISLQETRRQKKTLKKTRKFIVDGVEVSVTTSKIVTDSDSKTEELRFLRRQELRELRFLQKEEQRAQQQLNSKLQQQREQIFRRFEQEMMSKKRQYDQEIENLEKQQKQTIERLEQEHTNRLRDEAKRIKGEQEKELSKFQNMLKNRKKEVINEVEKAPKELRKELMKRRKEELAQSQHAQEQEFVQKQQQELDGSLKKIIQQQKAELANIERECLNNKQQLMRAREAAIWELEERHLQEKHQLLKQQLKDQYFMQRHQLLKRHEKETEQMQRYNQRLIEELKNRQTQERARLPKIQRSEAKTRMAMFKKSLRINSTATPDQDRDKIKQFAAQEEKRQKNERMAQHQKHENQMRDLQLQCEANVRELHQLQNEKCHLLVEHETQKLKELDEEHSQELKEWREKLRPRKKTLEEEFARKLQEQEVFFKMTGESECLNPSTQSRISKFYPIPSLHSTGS

[5] = target: Dual specificity protein kinase CLK2 (Homo sapiens) (UniProt P49760)
Chain of Dual specificity protein kinase CLK2 (Homo sapiens) (P49760 whole entry, looked up): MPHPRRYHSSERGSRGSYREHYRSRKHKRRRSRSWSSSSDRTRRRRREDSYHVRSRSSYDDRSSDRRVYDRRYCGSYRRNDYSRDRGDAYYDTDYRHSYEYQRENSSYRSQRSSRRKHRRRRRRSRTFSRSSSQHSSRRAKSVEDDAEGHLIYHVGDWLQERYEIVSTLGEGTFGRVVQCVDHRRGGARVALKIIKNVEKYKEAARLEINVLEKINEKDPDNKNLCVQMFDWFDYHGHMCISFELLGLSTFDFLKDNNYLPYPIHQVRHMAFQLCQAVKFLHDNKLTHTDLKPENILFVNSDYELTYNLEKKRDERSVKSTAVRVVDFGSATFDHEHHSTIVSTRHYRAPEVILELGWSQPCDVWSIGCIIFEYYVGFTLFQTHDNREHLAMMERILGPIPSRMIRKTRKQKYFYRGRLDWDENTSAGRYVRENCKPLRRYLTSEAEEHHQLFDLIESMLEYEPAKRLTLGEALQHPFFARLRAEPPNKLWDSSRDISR

[6] = target: T2, Serine/threonine-protein kinase 4 (Homo sapiens) (UniProt Q13043)
T2 sequence (whole entry): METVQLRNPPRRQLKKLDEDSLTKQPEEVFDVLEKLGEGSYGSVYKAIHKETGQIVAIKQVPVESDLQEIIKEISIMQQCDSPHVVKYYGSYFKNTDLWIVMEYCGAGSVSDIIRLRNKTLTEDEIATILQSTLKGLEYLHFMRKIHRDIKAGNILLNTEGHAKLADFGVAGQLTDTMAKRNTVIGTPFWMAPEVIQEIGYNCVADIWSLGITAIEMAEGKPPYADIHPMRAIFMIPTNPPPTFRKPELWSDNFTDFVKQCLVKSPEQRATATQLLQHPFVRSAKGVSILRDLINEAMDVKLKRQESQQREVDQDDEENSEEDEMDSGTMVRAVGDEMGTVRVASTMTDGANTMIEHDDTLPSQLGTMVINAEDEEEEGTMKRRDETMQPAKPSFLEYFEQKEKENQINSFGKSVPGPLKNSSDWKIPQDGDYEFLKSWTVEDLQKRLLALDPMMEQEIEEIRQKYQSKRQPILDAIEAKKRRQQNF

[7] = target: Cyclin-dependent kinase-like 1 (Homo sapiens) (UniProt Q00532)
Chain of Cyclin-dependent kinase-like 1 (Homo sapiens) (Q00532 whole entry): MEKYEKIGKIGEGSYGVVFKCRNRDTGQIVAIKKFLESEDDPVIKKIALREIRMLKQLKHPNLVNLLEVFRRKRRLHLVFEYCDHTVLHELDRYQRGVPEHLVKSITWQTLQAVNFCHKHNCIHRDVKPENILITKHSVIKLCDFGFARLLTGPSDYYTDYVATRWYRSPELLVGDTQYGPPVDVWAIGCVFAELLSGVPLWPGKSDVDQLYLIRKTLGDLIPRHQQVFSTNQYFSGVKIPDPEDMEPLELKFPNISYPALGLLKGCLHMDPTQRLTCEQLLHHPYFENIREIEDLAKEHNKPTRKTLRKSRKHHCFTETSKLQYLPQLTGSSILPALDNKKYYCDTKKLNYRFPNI

[8] = target: Dual specificity mitogen-activated protein kinase kinase 2 (Homo sapiens, UniProt P36507)
Chain of Dual specificity mitogen-activated protein kinase kinase 2 (P36507 whole entry): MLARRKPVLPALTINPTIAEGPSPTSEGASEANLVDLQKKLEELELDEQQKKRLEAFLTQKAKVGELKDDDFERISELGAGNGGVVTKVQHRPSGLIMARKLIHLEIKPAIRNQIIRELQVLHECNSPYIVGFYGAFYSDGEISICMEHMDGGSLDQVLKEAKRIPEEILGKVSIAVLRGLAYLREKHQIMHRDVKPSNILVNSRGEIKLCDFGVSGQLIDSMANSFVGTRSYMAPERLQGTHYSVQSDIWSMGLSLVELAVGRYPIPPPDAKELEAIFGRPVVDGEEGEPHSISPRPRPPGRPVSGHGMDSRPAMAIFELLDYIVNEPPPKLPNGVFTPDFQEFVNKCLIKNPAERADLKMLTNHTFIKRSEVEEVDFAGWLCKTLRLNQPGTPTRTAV

[9] = target: Calcium/calmodulin-dependent protein kinase kinase 2 (Homo sapiens, UniProt Q96RR4)
Chain of Calcium/calmodulin-dependent protein kinase kinase 2 (Q96RR4 2-588 limits assumed): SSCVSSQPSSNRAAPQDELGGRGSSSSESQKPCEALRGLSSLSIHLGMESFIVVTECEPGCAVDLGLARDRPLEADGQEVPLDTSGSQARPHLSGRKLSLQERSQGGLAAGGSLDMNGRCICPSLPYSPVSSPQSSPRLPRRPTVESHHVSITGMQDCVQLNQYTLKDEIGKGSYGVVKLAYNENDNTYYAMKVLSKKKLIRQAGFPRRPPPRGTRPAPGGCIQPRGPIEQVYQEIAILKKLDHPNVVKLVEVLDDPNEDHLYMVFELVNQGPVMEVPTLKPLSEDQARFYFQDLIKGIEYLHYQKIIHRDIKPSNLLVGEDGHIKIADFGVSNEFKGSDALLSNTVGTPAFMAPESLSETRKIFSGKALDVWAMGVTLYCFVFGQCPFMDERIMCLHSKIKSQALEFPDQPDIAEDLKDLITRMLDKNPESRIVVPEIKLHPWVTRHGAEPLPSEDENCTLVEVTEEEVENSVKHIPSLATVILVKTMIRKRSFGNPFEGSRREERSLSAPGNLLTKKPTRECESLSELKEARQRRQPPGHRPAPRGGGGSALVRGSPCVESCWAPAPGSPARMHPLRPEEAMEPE

[10] = target: Casein kinase I isoform gamma-3 (Homo sapiens) (UniProt Q9Y6M4)
Chain of Casein kinase I isoform gamma-3 (Homo sapiens) (Q9Y6M4 whole entry, looked up, canonical isoform): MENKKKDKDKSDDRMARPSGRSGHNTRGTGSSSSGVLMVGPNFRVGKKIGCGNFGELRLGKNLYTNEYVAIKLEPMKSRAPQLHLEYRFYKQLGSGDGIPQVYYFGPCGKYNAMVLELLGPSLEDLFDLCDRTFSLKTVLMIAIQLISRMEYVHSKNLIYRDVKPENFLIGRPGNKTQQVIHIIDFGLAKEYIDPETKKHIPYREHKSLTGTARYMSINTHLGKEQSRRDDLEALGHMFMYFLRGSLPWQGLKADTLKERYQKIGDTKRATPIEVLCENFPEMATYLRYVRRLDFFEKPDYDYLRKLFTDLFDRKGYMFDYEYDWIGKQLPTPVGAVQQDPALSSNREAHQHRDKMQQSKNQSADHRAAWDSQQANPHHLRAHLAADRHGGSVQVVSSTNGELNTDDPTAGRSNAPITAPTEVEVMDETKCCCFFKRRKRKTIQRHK

Chain of Serine/threonine-protein kinase Nek6 (Homo sapiens) (Q9HC98 whole entry): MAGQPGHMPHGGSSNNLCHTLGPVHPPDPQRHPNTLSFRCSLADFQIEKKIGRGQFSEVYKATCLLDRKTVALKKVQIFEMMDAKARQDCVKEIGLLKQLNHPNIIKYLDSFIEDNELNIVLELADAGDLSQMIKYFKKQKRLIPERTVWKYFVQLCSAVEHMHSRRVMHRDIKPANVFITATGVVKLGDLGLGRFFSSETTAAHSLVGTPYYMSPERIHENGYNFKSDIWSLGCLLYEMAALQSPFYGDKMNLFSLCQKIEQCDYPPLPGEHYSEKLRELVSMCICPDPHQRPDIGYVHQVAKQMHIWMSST

| SMILES | ΔTm [1] | ΔTm [2] | ΔTm [3] | ΔTm [4] | ΔTm [5] | ΔTm [6] | ΔTm [7] | ΔTm [8] | ΔTm [9] | ΔTm [10] |
| --- | --- | --- | --- | --- | --- | --- | --- | --- | --- | --- |
| CCN1/C(=C/C(C)=O)Sc2ccc(OC)cc21 | -1 °C | 0.3 °C | 1.4 °C | 0.7 °C | 4.1 °C | 0.1 °C | 0.4 °C | 0.5 °C | 0.4 °C | – |
| NC(=O)c1ccc2[nH]c(-c3ccc(Oc4ccc(Cl)cc4)cc3)nc2c1 | 0.4 °C | 0.4 °C | 1 °C | 0 °C | -0.4 °C | -0.2 °C | 0.1 °C | -1.2 °C | 2.4 °C | 1.3 °C |
| CN(C)C[C@@H]1CCn2cc(c3ccccc32)C2=C(C(=O)NC2=O)c2cn(c3ccccc23)CCO1 [RUBOXISTAURIN] | -0.6 °C | 0.5 °C | 5.9 °C | 7 °C | 4.2 °C | 0.6 °C | 0.3 °C | 0.1 °C | 1.6 °C | 0.5 °C |
| Cc1nc2sccn2c(=O)c1CCN1CCC(=C(c2ccccc2)c2ccc(F)cc2)CC1 | 0.1 °C | 0.5 °C | 2.6 °C | 1 °C | 2.8 °C | 3.6 °C | 0.4 °C | 1.8 °C | 0.6 °C | 0.3 °C |
| O=C1Nc2ccccc2/C1=C\c1ccc[nH]1 | 0 °C | 3.4 °C | 3.3 °C | 3.1 °C | 2.1 °C | 7.7 °C | 1.4 °C | 2.4 °C | 4.7 °C | 1.8 °C |
| O=c1c2ccccc2[nH]c(=S)n1CCN1CCC(=C(c2ccc(F)cc2)c2ccc(F)cc2)CC1 [DIACYLGLYCEROL KINASE INHIBITOR II] | 0.1 °C | 0.4 °C | 1.9 °C | 2.3 °C | 0.3 °C | 2 °C | -0.5 °C | 0.3 °C | 1.8 °C | -1.3 °C |
| COc1ccc(Cl)cc1NC(=O)Nc1cc(C)nc2ccccc12 | 0 °C | -0.3 °C | 0 °C | 1.4 °C | 0.6 °C | – | 1.6 °C | 0.2 °C | 0.4 °C | 0.9 °C |
| C[S+]([O-])c1ccc(CSc2nc(-c3ccc(F)cc3)c(-c3ccncc3)[nH]2)cc1 (stereo not drawn) | -0.2 °C | 0.1 °C | 0 °C | 1.1 °C | 0.2 °C | 0.1 °C | 0.2 °C | -0.4 °C | 0.9 °C | -0.1 °C |
| CC(C)(C)n1nc(-c2ccc(Cl)cc2)c2c(N)ncnc21 | 0.2 °C | 2.1 °C | 0.5 °C | 3.6 °C | 1.4 °C | 2.1 °C | -0.4 °C | 3.3 °C | 1 °C | 0.6 °C |
| C/C(O)=C(\C#N)C(=O)Nc1cc(Br)ccc1Br | -0.2 °C | 0.2 °C | 1.8 °C | 0.4 °C | 0.5 °C | 0.2 °C | 0.8 °C | -0.2 °C | -0.1 °C | 0.3 °C |
| CCCCc1c(-c2ccc(O)cc2)[nH]c2nccnc12 [ALOISINE A] | 2.9 °C | 0.7 °C | 8.3 °C | 6.8 °C | 1.9 °C | -0.2 °C | 0.1 °C | 2.1 °C | 1.8 °C | 2.5 °C |
| COc1cc(/C=C/C(=O)CC(=O)/C=C/c2ccc(O)c(OC)c2)ccc1O [CURCUMIN] | 0.9 °C | 4 °C | 3.4 °C | 3.2 °C | 2.6 °C | 5.5 °C | 3.9 °C | 2.8 °C | 6.1 °C | 0.3 °C |
